Our source for the IC50 values is patent US10980777B2, “Indole derivatives as histone demethylase inhibitors” (Istituto Europeo di Oncologia S.r.l., priority 2017, dated 2021).

In one test the test system is human leukemia NB4 cells. Nature of the test: Cell growth, CellTiter-Fluor cell viability assay, NB4. The test is classed as cell-based. Particulars: NB-4, 48 h incubation, read-out: IC50 against human leukemia NB4 cells. An excerpt:
(§1) CellTiter-Flor® (Promega) is as a nonlytic, single-reagent-addition fluorescence assay that measures the relative number of living cells in a culture population after experimental manipulation. The CellTiter-Fluor™ Cell Viability Assay measures the conserved and constitutive protease activity within live cells and therefore acts as a marker for cell viability.
(§2) Human leukemia MV4-11 cells, (obtained from the Deutsche Sammlung von Mikroorganismen und Zellkulturen, ACC 102) or NB4 cells, (obtained from the Deutsche Sammlung von Mikroorganismen und Zellkulturen) in exponential growth, were incubated for 48 h with different concentrations of the inhibitors. After 48 h a volume of CellTiter-Fluor® Reagent equal to one fifth of volume of cell culture medium was added. The content was mixed and incubates for at least 90 min at 37° C. degree to obtain a stable signal. The fluorescence was recorded using an excitation wavelength of 360 nm and an emission at 535 nm. The IC50 was calculated using GraphPad Software.

Test [1] addresses T1, human recombinant KDM1A/CoREST protein (Homo sapiens, UniProt O60341).
T1 construct: made in house; host or cells: E. coli
Nature of the test: Assay of enzyme inhibition of KDM1A (LSD1), TR-FRET. The test is classed as biochemical. As to conditions: 0.25 nM KDM1A/CoREST, 50 nM H3K4 monomethylated peptide, 20 min at RT; read-out: IC50, KDM1A (LSD1) enzyme inhibition. Here is the method:
2.1 Assay of Enzyme Inhibition of KDM1A (LSD1)
The KDM1A inhibiting activity was determined using a TR-FRET assay (time resolved fluorescence resonance energy transfer, Lance® Ultra Demethylase technology (Perkin Elmer, Waltham, Mass., USA)), which comprises a Europium chelate donor dye (TRF0404, Perkin Elmer, Waltham, Mass., USA) together with ULight™ (TR0102, Perkin Elmer, Waltham, Mass., USA), a small molecular weight acceptor dye with a red-shifted fluorescent emission, and a biotinylated 21 amino acids histone H3-derived monomethylated peptide (H3K4me) [Lys(Me1)4]-Histone H3 (1-21)-GGK(biotin), (64355, Anaspec, Fremont, Calif., USA) as substrate. The intensity of the light emission is proportional to the level of biotinylated reaction product. The complex of human recombinant KDM1A/CoREST protein was produced in E. coli as separate proteins and co-purified as previously described.(Forneris, F. et al. Trends Biochem, Sci, 2008, 33, 181-189) (Forneris, F. et al. J. Biol. Chem. 2007, 282, 20070-20074).
Demethylase Assay conditions: 0.25 nM KDM1A/CoREST protein and compound in 100% DMSO were added in a final volume of 48 μL assay buffer (Tris HCl 50 mM pH 8.8, NaCl 50 mM, DTT 1 mM, Tween-20 0.01% (by volume)) to each well of a 96 well half area flat bottom white plate (3693 Costar, Sigma-Aldrich, St. Louis, M, USA).
Demethylase reaction was started by the addition of 50 nM histone H3K4 monomethylated. After 20 min at RT, 300 μM tranylcypromine (P8511-1G, Sigma-Aldrich, St. Louis, Mo. 63103) was added to stop the reaction.
Detection step conditions: 10 μL of the assay mixture was transferred from the original plate into a 384 well white plate (6007290 OptiPlate™, Perkin Elmer, Waltham, Mass., USA) and 10 μL of the detection Mix containing 2 nM Eu-antibody and 10 nM U-Light-Streptavidin in 1× Lance Detection Buffer (TRF0404, TR0102, CR97100, Perkin Elmer, Waltham, Mass., USA). The resulting mixture was incubated in the dark for 1 h at RT. Then, TR-FRET signal was read by a fluorimeter (Infinite® F200, Tecan, Männedorf, Switzerland) (Excitation 320 nm, Emission 665 nm and 620 nm, delay time 50 μs, window time 100 μs).
IC50 determination: The inhibitor concentrations ranged from 0.025 to 500 μM (serial 1:3 dilutions). The IC50 was calculated using GraphPad Software.
Background: In TR-FRET formats the signal depends on donor and acceptor labels being close together.

Test [2] deals with Human leukemia MV4-11 cells. Nature of the test: Cell growth, CellTiter-Fluor cell viability assay, MV4-11. Type of test: cell-based. As to conditions: 48 h incubation, read-out: IC50 against human leukemia MV4-11 cells.
Source text: as §1, §2

Molecules are shown by their SMILES. Where a name gives a salt, the structure may show the parent alone.

Usually IC50 stands for the concentration that inhibits the measured activity by half. Regarding `Cn1c(C(=O)c2cn(CCOc3ccc(OC4CCNCC4)cc3)c3ccccc23)cc2sccc21` [Compound 17, (4-methylthieno[3,2-b]pyrrol-5-yl)-[1-[2-[4-(4-piperidyloxy)phenoxy]ethyl]indol-3-yl]methanone hydrochloride], the IC50 is below 10 µM with human leukemia NB4 cells, below 0.5 µM in test [1] and below 10 µM in test [2].

Take `Cn1c(C(=O)c2cn(CCOc3cccc(OCC4CCNCC4)c3)c3ccccc23)cc2sccc21` [Compound 18, (4-methylthieno[3,2-b]pyrrol-5-yl)-[1-[2-[3-(4-piperidylmethoxy)phenoxy]ethyl]indol-3-yl]methanone hydrochloride]: the IC50 was below 10 µM in the test with human leukemia NB4 cells, below 0.5 µM in test [1] and below 10 µM in test [2].

Regarding `Cn1c(C(=O)c2cn(CCOc3ccc(OCC4CCNCC4)cc3)c3ccccc23)cc2sccc21` [Compound 19, (4-methylthieno[3,2-b]pyrrol-5-yl)-[1-[2-[4-(4-piperidylmethoxy)phenoxy]ethyl]indol-3-yl]methanone hydrochloride], the figures for the IC50 (in the test with human leukemia NB4 cells; in test [1]; in test [2]) were below 10 µM, below 0.5 µM and below 10 µM, respectively.
